Test results reported in patent publication US11207325B2, “Triazolopyrimidine compounds and uses thereof” (Novartis AG, priority 2014, dated 2021).

test system: H3K27 methylation in G401 cell; test: ELISA (H3K27 methylation) assay; type: cell-based; conditions: Homo sapiens, G-401; ELISA Qualified assay (H3K27 methylation); read-out: (c) IC50 (μM), ELISA Qualified
From the text: ELISA (H3K27 Methylation) Assay

| IC50 [µM] | Compound |
| --- | --- |
| 0.656 | OC1CN(c2ccc(-c3cnc(NCc4cccc5c4CCO5)n4cnnc34)cn2)C1 [Example 126, 1-(5-(5-(((2,3-dihydrobenzofuran-4-yl)methyl)amino)-[1,2,4]triazolo[4,3-c]pyrimidin-8-yl)pyridin-2-yl)azetidin-3-ol] |
| 0.028 | Cc1cc(S(C)(=O)=O)ncc1-c1cnc(NCc2c(F)ccc3c2CCO3)n2cnnc12 [Example 127, N-((5-fluoro-2,3-dihydrobenzofuran-4-yl)methyl)-8-(4-methyl-6-(methylsulfonyl)pyridin-3-yl)-[1,2,4]triazolo[4,3-c]pyrimidin-5-amine] |
| 0.0037 | Cc1cc(S(C)(=O)=O)ccc1-c1cnc(NCc2c(F)ccc3c2CCO3)n2cnnc12 [Example 128, N-((5-fluoro-2,3-dihydrobenzofuran-4-yl)methyl)-8-(2-methyl-4-(methylsulfonyl)phenyl)-[1,2,4]triazolo[4,3-c]pyrimidin-5-amine] |
| 0.0019 | O=C(c1ccc(-c2cnc(NCc3c(F)ccc4c3CCO4)n3cnnc23)cn1)N1CCCC1 [Example 129, (5-(5-(((5-fluoro-2,3-dihydrobenzofuran-4-yl)methyl)amino)-[1,2,4]triazolo[4,3-c]pyrimidin-8-yl)pyridin-2-yl)(pyrrolidin-l-yl)methanone] |
| 0.0013 | Cc1cc(C(=O)N2CCCC2)ncc1-c1cnc(NCc2c(F)ccc3c2CCO3)n2cnnc12 [Example 130, (5-(5-(((5-fluoro-2,3-dihydrobenzofuran-4-yl)methyl)amino)-[1,2,4]triazolo[4,3-c]pyrimidin-8-yl)-4-methylpyridin-2-yl)(pyrrolidin-l-yl)methanone] |
| 0.0033 | Cc1cc(C(=O)N(C)C)ncc1-c1cnc(NCc2c(F)ccc3c2CCO3)n2cnnc12 [Example 131, 5-(5-(((5-fluoro-2,3-dihydrobenzofuran-4-yl)methyl)amino)-[1,2,4]triazolo[4,3-c]pyrimidin-8-yl)-N,N,4-trimethylpicolinamide] |
| 0.0077 | Cc1nn(C)c(C)c1-c1cnc(NCc2c(F)ccc3c2CCO3)n2cnnc12 [Example 132, N-((5-fluoro-2,3-dihydrobenzofuran-4-yl)methyl)-8-(1,3,5-trimethyl-1H-pyrazol-4-yl)-[1,2,4]triazolo[4,3-c]pyrimidin-5-amine] |
| 0.142 | O=C1CN(Cc2ccc(-c3cnc(NCc4cccc5c4CCO5)n4cnnc34)cn2)CCN1 [Example 133, 4-((5-(5-(((2,3-dihydrobenzofuran-4-yl)methyl)amino)-[1,2,4]triazolo[4,3-c]pyrimidin-8-yl)pyridin-2-yl)methyl)piperazin-2-one] |
| 0.165 | O=CN1CCN(c2ccc(-c3cnc(NCc4cccc5c4CCO5)n4cnnc34)cn2)CC1 [Example 134, 4-(5-(5-(((2,3-dihydrobenzofuran-4-yl)methyl)amino)-[1,2,4]triazolo[4,3-c]pyrimidin-8-yl)pyridin-2-yl)piperazine-1-carbaldehyde] |
| 0.321 | CN(C)C(=O)CCc1ccc(-c2cnc(NCc3cccc4c3CCO4)n3cnnc23)cn1 [Example 135, 3-(5-(5-(((2,3-dihydrobenzofuran-4-yl)methyl)amino)-[1,2,4]triazolo[4,3-c]pyrimidin-8-yl)pyridin-2-yl)-N,N-dimethylpropanamide] |
| 0.0804 | Fc1ccc2c(c1CNc1ncc(-c3cnccc3C(F)(F)F)c3nncn13)CCO2 [Example 136, N-((5-fluoro-2,3-dihydrobenzofuran-4-yl)methyl)-8-(4-(trifluoromethyl)pyridin-3-yl)-[1,2,4]triazolo[4,3-c]pyrimidin-5-amine] |
| 0.226 | COCc1cc(-c2cnc(NCc3cccc4c3CCO4)n3cnnc23)cnc1C [Example 137, N-((2,3-dihydrobenzofuran-4-yl)methyl)-8-(5-(methoxymethyl)-6-methylpyridin-3-yl)-[1,2,4]triazolo[4,3-c]pyrimidin-5-amine] |
| 0.0072 | COc1cc(Cl)c(-c2cnc(NCc3c(F)ccc4c3CCO4)n3cnnc23)cn1 [Example 138, 8-(4-chloro-6-methoxypyridin-3-yl)-N-((5-fluoro-2,3-dihydrobenzofuran-4-yl)methyl)-[1,2,4]triazolo[4,3-c]pyrimidin-5-amine] |
| 0.0016 | Cc1nc(S(C)(=O)=O)ccc1-c1cnc(NCc2c(F)ccc3c2CCO3)n2cnnc12 [Example 139, N-((5-fluoro-2,3-dihydrobenzofuran-4-yl)methyl)-8-(2-methyl-6-(methylsulfonyl)pyridin-3-yl)-[1,2,4]triazolo[4,3-c]pyrimidin-5-amine] |
| 0.0263 | CN(C)C(=O)c1ccc(-c2cnc(NCc3c(F)ccc4c3CCO4)n3cnnc23)cn1 [Example 140, 5-(5-(((5-fluoro-2,3-dihydrobenzofuran-4-yl)methyl)amino)-[1,2,4]triazolo[4,3-c]pyrimidin-8-yl)-N,N-dimethylpicolinamide] |
| 0.0351 | COc1ncccc1-c1cnc(NCc2c(F)ccc3c2CCO3)n2cnnc12 [Example 141, N-((5-fluoro-2,3-dihydrobenzofuran-4-yl)methyl)-8-(2-methoxypyridin-3-yl)-[1,2,4]triazolo[4,3-c]pyrimidin-5-amine] |
| 0.0043 | COc1ccc(-c2cnc(NCc3c(F)ccc4c3CCO4)n3cnnc23)cn1 [Example 142, N-((5-fluoro-2,3-dihydrobenzofuran-4-yl)methyl)-8-(6-methoxypyridin-3-yl)-[1,2,4]triazolo[4,3-c]pyrimidin-5-amine] |

| IC50 [µM] | Compound |
| --- | --- |
| 0.0106 | CCn1nccc1-c1cnc(NCc2c(F)ccc3c2CCO3)n2cnnc12 [Example 143, 8-(1-ethyl-1H-pyrazol-5-yl)-N-((5-fluoro-2,3-dihydrobenzofuran-4-yl)methyl)-[1,2,4]triazolo[4,3-c]pyrimidin-5-amine] |
| 0.0683 | CC(C)n1nccc1-c1cnc(NCc2c(F)ccc3c2CCO3)n2cnnc12 [Example 144, N-((5-fluoro-2,3-dihydrobenzofuran-4-yl)methyl)-8-(1-isopropyl-1H-pyrazol-5-yl)-[1,2,4]triazolo[4,3-c]pyrimidin-5-amine] |
| 0.0052 | COc1cc(-c2cnc(NCc3c(F)ccc4c3CCO4)n3cnnc23)ccn1 [Example 145, N-((5-fluoro-2,3-dihydrobenzofuran-4-yl)methyl)-8-(2-methoxypyridin-4-yl)-[1,2,4]triazolo[4,3-c]pyrimidin-5-amine] |
| 0.0744 | Fc1ccc2c(c1CNc1ncc(-c3ccc(Cl)cc3Cl)c3nncn13)CCO2 [Example 146, 8-(2,4-dichlorophenyl)-N-((5-fluoro-2,3-dihydrobenzofuran-4-yl)methyl)-[1,2,4]triazolo[4,3-c]pyrimidin-5-amine] |
| 0.0113 | Cn1cc(-c2cnc(NCc3c(F)ccc4c3CCO4)n3cnnc23)cn1 [Example 147, N-((5-fluoro-2,3-dihydrobenzofuran-4-yl)methyl)-8-(1-methyl-1H-pyrazol-4-yl)-[1,2,4]triazolo[4,3-c]pyrimidin-5-amine] |
| 0.0252 | CC(C)n1cc(-c2cnc(NCc3c(F)ccc4c3CCO4)n3cnnc23)c(C(F)(F)F)n1 [Example 148, N-((5-fluoro-2,3-dihydrobenzofuran-4-yl)methyl)-8-(1-isopropyl-3-(trifluoromethyl)-1H-pyrazol-4-yl)-[1,2,4]triazolo[4,3-c]pyrimidin-5-amine] |
| 0.22 | c1cc(CNc2ncc(-c3cnn(C4CC4)c3)c3nncn23)c2c(c1)OCC2 [Example 149, 8-(1-cyclopropyl-1H-pyrazol-4-yl)-N-((2,3-dihydrobenzofuran-4-yl)methyl)-[1,2,4]triazolo[4,3-c]pyrimidin-5-amine] |
| 0.0148 | Fc1ccc2c(c1CNc1ncc(-c3cnn(C4CC4)c3)c3nncn13)CCO2 [Example 150, 8-(1-cyclopropyl-1H-pyrazol-4-yl)-N-((5-fluoro-2,3-dihydrobenzofuran-4-yl)methyl)-[1,2,4]triazolo[4,3-c]pyrimidin-5-amine] |
| 0.0086 | Cc1nn(C(C)C)c(C)c1-c1cnc(NCc2c(F)ccc3c2CCO3)n2cnnc12 [Example 151, N-((5-fluoro-2,3-dihydrobenzofuran-4-yl)methyl)-8-(1-isopropyl-3,5-dimethyl-1H-pyrazol-4-yl)-[1,2,4]triazolo[4,3-c]pyrimidin-5-amine] |
| 0.008 | Cn1nccc1-c1cnc(NCc2cccc3c2CCO3)n2cnnc12 [Example 152, N-((2,3-dihydrobenzofuran-4-yl)methyl)-8-(1-methyl-1H-pyrazol-5-yl)-[1,2,4]triazolo[4,3-c]pyrimidin-5-amine] |
| 0.0073 | Cc1nn(C(C)C)c(C)c1-c1cnc(NCc2cccc3c2CCO3)n2cnnc12 [Example 153, N-((2,3-dihydrobenzofuran-4-yl)methyl)-8-(1-isopropyl-3,5-dimethyl-1H-pyrazol-4-yl)-[1,2,4]triazolo[4,3-c]pyrimidin-5-amine] |
| 0.0968 | FC(F)c1ccc(-c2cnc(NCc3cccc4c3CCO4)n3cnnc23)cn1 [Example 154, 8-(6-(difluoromethyl)pyridin-3-yl)-N-((2,3-dihydrobenzofuran-4-yl)methyl)-[1,2,4]triazolo[4,3-c]pyrimidin-5-amine] |
| 0.078 | COc1ccc(-c2cnc(NCc3c(F)ccc4c3CCO4)n3cnnc23)c(C)n1 [Example 155, N-((5-fluoro-2,3-dihydrobenzofuran-4-yl)methyl)-8-(6-methoxy-2-methylpyridin-3-yl)-[1,2,4]triazolo[4,3-c]pyrimidin-5-amine] |
| 0.0261 | Cc1nc(N)ccc1-c1cnc(NCc2c(F)ccc3c2CCO3)n2cnnc12 [Example 156, 8-(6-amino-2-methylpyridin-3-yl)-N-((5-fluoro-2,3-dihydrobenzofuran-4-yl)methyl)-[1,2,4]triazolo[4,3-c]pyrimidin-5-amine] |
| 0.445 | Fc1ccc(-c2cnc(NCc3c(F)ccc4c3CCO4)n3cnnc23)c(Cl)c1 [Example 157, 8-(2-chloro-4-fluorophenyl)-N-((5-fluoro-2,3-dihydrobenzofuran-4-yl)methyl)-[1,2,4]triazolo[4,3-c]pyrimidin-5-amine] |
| 0.0067 | Cc1nn(CCO)c(C)c1-c1cnc(NCc2c(F)ccc3c2CCO3)n2cnnc12 [Example 158, 2-(4-(5-(((5-fluoro-2,3-dihydrobenzofuran-4-yl)methyl)amino)-[1,2,4]triazolo[4,3-c]pyrimidin-8-yl)-3,5-dimethyl-1H-pyrazol-1-yl)ethanol] |
